Article PMC9694130, “Design, Preparation, Characterization and Evaluation of Five Cocrystal Hydrates of Fluconazole with Hydroxybenzoic Acids” (Pharmaceutics, 2022)

Experiments:
[1] = Apparent powder dissolution in ultrapure water; assay type: physicochemical; settings: 37 °C, 100 rpm, rank among the three cocrystal hydrates
Description: Sampling was conducted by withdrawing 1 mL aliquot of the sample at time intervals of 5, 10, 15, 20, 30, 45, 60, 90, and 120 min from the vessel and filtered through a 0.45 μm syringe tip filter, and the aliquots were assayed on a high-performance liquid chromatography (HPLC) system. The measurements of the powder dissolution rate were repeated in triplicate.
(§1) The HPLC (Agilent Technologies, Santa Clara, USA) system was equipped with a UV detector and an Agilent Eclipse XDB−C18 (250 mm × 4.6 mm, 5 μm) column with the temperature set to 30 °C. The mobile phase consisted of acetonitrile and water (25:75, v:v) with a flow rate of 1.0 mL min^−1. The injection volume was 10 μL and the detection wavelength was set to 261 nm.

[2] = Accelerated stability test (PXRD); assay type: physicochemical; settings: for stability under high temperature: high temperature (60 ± 1 °C), phase changes reported after 5 days
Description: Approximately 50 mg of powdered samples were stored under the three test conditions and measured at regular time intervals (0, 5, and 10 days) by PXRD.

[3] = Intrinsic dissolution rate (IDR) in ultrapure water; assay type: physicochemical; settings: 37 °C; for order of intrinsic dissolution rate: ultrapure water, 100 rpm, rank among the three cocrystal hydrates
Description: The resulting disk has a flat surface of 0.5 cm^2. Then, the disk was dipped into a vessel containing 900 mL ultrapure water at 37 ± 0.2 °C, with the paddle rotating at 100 rpm. At time intervals (60, 75, 90, 120, 150, 180, 210, 240, 270, and 300 min), 1 mL of the dissolution medium was withdrawn manually. After filtration through a 0.45 μm syringe tip filter, the aliquots were assayed on an HPLC system. Each experiment was repeated in triplicate.
as §1

[4] = cited from earlier work; for aqueous solubility of CCFs in water: water at 25 °C, no reference given

| stability under high temperature ([2]; PXRD at 0, 5 and 10 days) | Compound | order of apparent dissolution rate [1] | order of intrinsic dissolution rate [3] | aqueous solubility of CCFs in water [4] [mg/mL] | further results |
| --- | --- | --- | --- | --- | --- |
| forming an anhydrous form | O.O=C(O)c1cc(O)cc(O)c1.OC(Cn1cncn1)(Cn1cncn1)c1ccc(F)cc1F [FLZ−35DHB−H2O (1:1:1)] | FLZ−35DHB−H2O (1:1:1) > FLZ−34DHB−H2O (1:1:1) > FLZ−24DHB−H2O (1:0.5:1) | FLZ−35DHB−H2O (1:1:1) > FLZ−34DHB−H2O (1:1:1) > FLZ−24DHB−H2O (1:0.5:1) |  | IDR compared with FLZ form II ([3]; ultrapure water 900 mL, paddle 100 rpm, disk 0.5 cm^2): higher IDR |
|  | O=C(O)c1ccc(O)c(O)c1 [34DHB, 3,4-dihydroxybenzoic acid] |  |  | 29 |  |
| stable | O.O=C(O)c1ccc(O)c(O)c1.OC(Cn1cncn1)(Cn1cncn1)c1ccc(F)cc1F [FLZ−34DHB−H2O (1:1:1)] | FLZ−35DHB−H2O (1:1:1) > FLZ−34DHB−H2O (1:1:1) > FLZ−24DHB−H2O (1:0.5:1) | FLZ−35DHB−H2O (1:1:1) > FLZ−34DHB−H2O (1:1:1) > FLZ−24DHB−H2O (1:0.5:1) |  | hygroscopicity relative to FLZ ([2]; compared with commercialized FLZ form II): significantly reduces hygroscopicity; stability under high humidity ([2]; high humidity (90 ± 5%, 25 °C), PXRD at 0, 5 and 10 days): stable; stability under illumination ([2]; illumination (4500 ± 500 lx, 25 °C), PXRD at 0, 5 and 10 days): stable |
|  | OC(Cn1cncn1)(Cn1cncn1)c1ccc(F)cc1F [FLZ, 2-(2,4-difluorophenyl)-1,3-di(1H-1,2,4-triazol-1-yl)propan-2-ol, reference compound] |  |  |  | aqueous solubility ([4]; FLZ form II): 2 to 8 mg/mL |
|  | O=C(O)c1cc(O)cc(O)c1 [35DHB, 3,5-dihydroxybenzoic acid] |  |  | 84 |  |
| converted to FLZ form II | O.OC(Cn1cncn1)(Cn1cncn1)c1ccc(F)cc1F [FLZ monohydrate, reference compound] |  |  |  |  |
|  | O=C(O)c1ccc(O)cc1O [24DHB, 2,4-dihydroxybenzoic acid] |  |  | 8 |  |

| Compound | stability under high temperature ([2]; PXRD at 0, 5 and 10 days) | order of apparent dissolution rate [1] | order of intrinsic dissolution rate [3] | aqueous solubility of CCFs in water [4] [mg/mL] | further results |
| --- | --- | --- | --- | --- | --- |
| O.O.O=C(O)c1ccc(O)c(O)c1.OC(Cn1cncn1)(Cn1cncn1)c1ccc(F)cc1F.OC(Cn1cncn1)(Cn1cncn1)c1ccc(F)cc1F [FLZ−34DHB−H2O (1:0.5:1)] | converted to the physical mixture of amorphous and crystalline phases |  |  |  |  |
| O.O.O=C(O)c1ccc(O)cc1O.OC(Cn1cncn1)(Cn1cncn1)c1ccc(F)cc1F.OC(Cn1cncn1)(Cn1cncn1)c1ccc(F)cc1F [FLZ−24DHB−H2O (1:0.5:1)] | converted to the physical mixture of amorphous and crystalline phases | FLZ−35DHB−H2O (1:1:1) > FLZ−34DHB−H2O (1:1:1) > FLZ−24DHB−H2O (1:0.5:1) | FLZ−35DHB−H2O (1:1:1) > FLZ−34DHB−H2O (1:1:1) > FLZ−24DHB−H2O (1:0.5:1) |  |  |
